Test results: PubChem BioAssay AID248 (DTP/NCI, 2004)
Where “and” joins values, the source holds several entries; their conditions need not be identical. Equal values may be shown once. Toxic doses and inconclusive results are not listed. No stated cut-off is given here; in the data, active means T/C of 150% or more; inactive means T/C below 125%. Peptide text beside a SMILES is read from it. * marks the point of attachment. Cbz = O=C(OCc1ccccc1)*

System: L1210 leukemia ip in BDF1 mice, survival T/C
Experiment: NCI In Vivo Anticancer Drug Screen. Data for tumor model L1210 Leukemia (intraperitoneal) in B6D2F1 (BDF1) mice
Conditions: endpoint: mean survival time, higher = longer survival
Outline: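 Transplantable tumor model; survival measured in treated vs vehicle control mice. Value = treated/control.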

[1] = dose: 25.0 mg/kg/injection, schedule: Q01DX009 (ip), vehicle: saline
[2] = dose: 25.0 mg/kg/injection, schedule: Q04DX003 (ip), vehicle: saline
[3] = dose: 50.0 mg/kg/injection, schedule: Q04DX003 (ip), vehicle: saline
[4] = dose: 100.0 mg/kg/injection, schedule: Q01DX001 (ip), vehicle: saline
[5] = dose: 100.0 mg/kg/injection, schedule: Q04DX003 (ip), vehicle: Klucel (hydroxypropylcellulose) (HPC)
[6] = dose: 200.0 mg/kg/injection, schedule: Q04DX003 (ip), vehicle: Klucel (hydroxypropylcellulose) (HPC)
[7] = dose: 400.0 mg/kg/injection, schedule: Q04DX003 (ip), vehicle: Klucel (hydroxypropylcellulose) (HPC)
[8] = dose: 100.0 mg/kg/injection, schedule: Q01DX001 (ip), vehicle: Klucel (hydroxypropylcellulose) (HPC)
[9] = dose: 200.0 mg/kg/injection, schedule: Q01DX001 (ip), vehicle: Klucel (hydroxypropylcellulose) (HPC)
[10] = dose: 400.0 mg/kg/injection, schedule: Q01DX001 (ip), vehicle: Klucel (hydroxypropylcellulose) (HPC)
[11] = dose: 400.0 mg/kg/injection, schedule: Q04DX002 (ip), vehicle: saline with Tween-80
[12] = dose: 100.0 mg/kg/injection, schedule: Q04DX003 (ip), vehicle: saline

Measured: T/C

Nc1ccc(Nc2ccc([N+](=O)[O-])cc2[N+](=O)[O-])cc1
inactive: dose: 50.0 mg/kg/injection, schedule: Q01DX009 (ip), vehicle: gum acacia 99 % of control | dose: 50.0 mg/kg/injection, schedule: Q04DX003 (ip), vehicle: gum acacia 100 % of control | dose: 100.0 mg/kg/injection, schedule: Q01DX009 (ip), vehicle: gum acacia 94 % of control | dose: 100.0 mg/kg/injection, schedule: Q04DX003 (ip), vehicle: gum acacia 101 % of control | dose: 200.0 mg/kg/injection, schedule: Q01DX009 (ip), vehicle: gum acacia 94 % of control | dose: 200.0 mg/kg/injection, schedule: Q04DX003 (ip), vehicle: gum acacia 98 % of control

C1=C(c2ccccc2)[P+](c2ccccc2)(c2ccccc2)C=C(c2ccccc2)[P+]1(c1ccccc1)c1ccccc1
inactive: dose: 12.5 mg/kg/injection, schedule: Q01DX009 (ip), vehicle: saline 108 % of control | dose: 12.5 mg/kg/injection, schedule: Q04DX003 (ip), vehicle: saline 106 % of control | [1] 109 % of control | [2] 109 % of control | [3] 102 % of control

Cc1ccc(/C=C/C(=O)c2ccc(Cl)cc2)cc1
inactive: dose: 100.0 mg/kg/injection, schedule: Q01DX009 (ip), vehicle: saline with Tween-80 108 % of control | dose: 100.0 mg/kg/injection, schedule: Q04DX003 (ip), vehicle: saline with Tween-80 93 % of control | dose: 200.0 mg/kg/injection, schedule: Q01DX009 (ip), vehicle: saline with Tween-80 94 % of control | dose: 200.0 mg/kg/injection, schedule: Q04DX003 (ip), vehicle: saline with Tween-80 101 % of control | dose: 400.0 mg/kg/injection, schedule: Q01DX009 (ip), vehicle: saline with Tween-80 97 % of control | dose: 400.0 mg/kg/injection, schedule: Q04DX003 (ip), vehicle: saline with Tween-80 91 % of control

O=C1/C(=C\c2ccccc2Cl)N2CCC1CC2
inactive: dose: 100.0 mg/kg/injection, schedule: Q01DX001 (ip), vehicle: saline with Tween-80 94 % of control | dose: 200.0 mg/kg/injection, schedule: Q01DX001 (ip), vehicle: saline with Tween-80 109 % of control | dose: 400.0 mg/kg/injection, schedule: Q01DX001 (ip), vehicle: saline with Tween-80 93 % of control

Cc1cc(C)c2ccc(=O)[nH]c2n1
inactive: [4] 92 % of control | dose: 200.0 mg/kg/injection, schedule: Q01DX001 (ip), vehicle: saline 101 % of control | dose: 400.0 mg/kg/injection, schedule: Q01DX001 (ip), vehicle: saline 101 % of control

CCOC(CNC(=O)OCc1ccccc1)OCC
inactive: dose: 50.0 mg/kg/injection, schedule: Q01DX009 (ip), vehicle: Klucel (hydroxypropylcellulose) (HPC) 98 % of control | dose: 100.0 mg/kg/injection, schedule: Q01DX009 (ip), vehicle: Klucel (hydroxypropylcellulose) (HPC) 96 % of control and 106 % of control | [5] 96 % of control | dose: 150.0 mg/kg/injection, schedule: Q01DX009 (ip), vehicle: Klucel (hydroxypropylcellulose) (HPC) 102 % of control | dose: 200.0 mg/kg/injection, schedule: Q01DX009 (ip), vehicle: Klucel (hydroxypropylcellulose) (HPC) 98 % of control | [6] 105 % of control | dose: 400.0 mg/kg/injection, schedule: Q01DX009 (ip), vehicle: Klucel (hydroxypropylcellulose) (HPC) 101 % of control | [7] 97 % of control

CC1(C)C2=CCCCC2CC/C1=N\O (centres undefined)
inactive: [8] 105 % of control | [9] 105 % of control | [10] 100 % of control

Cc1ccc(CNC(=S)Nc2ccccc2)c(C)c1
inactive: dose: 100.0 mg/kg/injection, schedule: Q04DX002 (ip), vehicle: Klucel (hydroxypropylcellulose) (HPC) 96 % of control | dose: 200.0 mg/kg/injection, schedule: Q04DX002 (ip), vehicle: Klucel (hydroxypropylcellulose) (HPC) 103 % of control | dose: 400.0 mg/kg/injection, schedule: Q04DX002 (ip), vehicle: Klucel (hydroxypropylcellulose) (HPC) 103 % of control

CC(=O)Nc1c2ccccc2nc2ccccc12
inactive: dose: 100.0 mg/kg/injection, schedule: Q04DX002 (ip), vehicle: saline with Tween-80 90 % of control | dose: 200.0 mg/kg/injection, schedule: Q04DX002 (ip), vehicle: saline with Tween-80 97 % of control | [11] 90 % of control

C=C1C(=O)OC2C1CCC(C)C1CC(O)C(O)C12C (centres undefined)
inactive: dose: 12.5 mg/kg/injection, schedule: Q04DX003 (ip), vehicle: Klucel (hydroxypropylcellulose) (HPC) 96 % of control | dose: 25.0 mg/kg/injection, schedule: Q04DX003 (ip), vehicle: Klucel (hydroxypropylcellulose) (HPC) 101 % of control | dose: 50.0 mg/kg/injection, schedule: Q04DX003 (ip), vehicle: Klucel (hydroxypropylcellulose) (HPC) 101 % of control

CSCCC(NC(=O)C(CO)NC(=O)OCc1ccccc1)C(=O)O (stereo not drawn) (Cbz-Ser-Met-OH; configuration not given here)
inactive: [5] 96 % of control | [6] 97 % of control | [7] 96 % of control

O=[N+]([O-])c1cccc2nonc12
inactive: dose: 3.12 mg/kg/injection, schedule: Q04DX002 (ip), vehicle: Klucel (hydroxypropylcellulose) (HPC) 93 % of control | dose: 6.25 mg/kg/injection, schedule: Q04DX002 (ip), vehicle: Klucel (hydroxypropylcellulose) (HPC) 109 % of control | dose: 12.5 mg/kg/injection, schedule: Q04DX002 (ip), vehicle: Klucel (hydroxypropylcellulose) (HPC) 102 % of control

Cc1ccc(S(=O)(=O)N(CCCc2c(C)nc(N)nc2Cl)c2ccccc2)cc1
inactive: [8] 86 % of control | [10] 93 % of control

NC1(C(=O)O)Cc2ccccc2B(O)OC1=O (centres undefined)
inactive: [5] 98 % of control | [6] 96 % of control | [7] 106 % of control

CCOP(=O)(OCC)OC(=C(F)F)P(=O)(OCC)OCC
inactive: [12] 98 % of control | dose: 200.0 mg/kg/injection, schedule: Q04DX003 (ip), vehicle: saline 101 % of control | dose: 400.0 mg/kg/injection, schedule: Q04DX003 (ip), vehicle: saline 96 % of control

O=c1c(CCO)c(C2CC2)n2n1CCCC2
inactive: dose: 9.38 mg/kg/injection, schedule: Q01DX001 (ip), vehicle: other 94 % of control | dose: 18.75 mg/kg/injection, schedule: Q01DX001 (ip), vehicle: other 103 % of control

C1CCC2C(C1)NC1CCCCC12 (centres undefined)
inactive: [12] 97 % of control

CC(=O)OC1COC(SC(C)=O)C(OC(C)=O)C1OC(C)=O (centres undefined)
inactive: dose: 100.0 mg/kg/injection, schedule: Q01DX001 (ip), vehicle: other 95 % of control | dose: 200.0 mg/kg/injection, schedule: Q01DX001 (ip), vehicle: other 104 % of control | dose: 400.0 mg/kg/injection, schedule: Q01DX001 (ip), vehicle: other 95 % of control

Nc1nc(Nc2ccc(C3=NCCN3)cc2)nc(Nc2ccc(C3=NCCN3)cc2)n1
inactive: dose: 1.2 mg/kg/injection, schedule: Q01DX Z (ip), vehicle: methylcellulose (MC) 112 % of control | dose: 1.9 mg/kg/injection, schedule: Q01DX Z (ip), vehicle: methylcellulose (MC) 123 % of control | dose: 3.75 mg/kg/injection, schedule: Q01DX Z (ip), vehicle: methylcellulose (MC) 117 % of control | dose: 15.0 mg/kg/injection, schedule: Q01DX Z (ip), vehicle: methylcellulose (MC) 120 % of control | dose: 16.5 mg/kg/injection, schedule: Q01DX009 (ip), vehicle: saline 108 % of control | [1] 120 % of control and 122 % of control | [2] 112 % of control | dose: 37.5 mg/kg/injection, schedule: Q01DX009 (ip), vehicle: saline 114 % of control and 115 % of control | dose: 50.0 mg/kg/injection, schedule: Q01DX009 (ip), vehicle: saline 123 % of control | [3] 109 % of control | dose: 60.0 mg/kg/injection, schedule: Q01DX Z (oral), vehicle: carboxymethylcellulose (CMC) 100 % of control | [4] 117 % of control | [12] 91 % of control | dose: 120.0 mg/kg/injection, schedule: Q01DX Z (oral), vehicle: carboxymethylcellulose (CMC) 95 % of control

CCCCCCCCCCCCOc1cccc(OCCCCCCCCCCCC)c1
inactive: [8] 92 % of control | [9] 87 % of control | [10] 87 % of control

Fc1cc(F)c(F)c(Nc2c(F)c(F)c(Br)c(F)c2F)c1F
inactive: dose: 25.6 mg/kg/injection, schedule: Q04DX002 (ip), vehicle: saline with Tween-80 92 % of control | dose: 64.0 mg/kg/injection, schedule: Q04DX002 (ip), vehicle: saline with Tween-80 103 % of control | dose: 160.0 mg/kg/injection, schedule: Q04DX002 (ip), vehicle: saline with Tween-80 92 % of control | [11] 95 % of control
